The text below walks through data of patent US10064873B2, “Compounds and compositions for treating HIV with derivatives of Betulin” (GlaxoSmithKline LLC, priority 2011, dated 2018).

One experiment relates to HIV NL4-3 wt. Description: MT4 antiviral assay, NL4-3 strain wild type. In kind it is cell-based, HIV-1. The settings on record: Human immunodeficiency virus 1, NL43, MT4, read-out: EC50 NL4-3 wt (nM).
For the molecule `CC(=O)O[C@H](CNCc1cccc(Cl)c1)[C@@]12CC[C@]3(C)[C@H](CC[C@@H]4[C@@]5(C)CC[C@H](OC(=O)CC(C)(C)C(=O)O)C(C)(C)[C@@H]5CC[C@]43C)C1=C(C(C)C)C(=O)C2` [Example 39, 4-(((3aR,5aR,5bR,7aR,9S,11aR,11bR,13aS)-3a-((S)-1-Acetoxy-2-((3-chlorobenzyl)amino)ethyl)-1-isopropyl-5a,5b,8,8,11a-pentamethyl-2-oxo-3,3a,4,5,5a,5b,6,7,7a,8,9,10,11,11a,11b,12,13,13a-octadecahydro-2H-cyclopenta[a]chrysen-9-yl)oxy)-2,2-dimethyl-4-oxobutanoic acid], the EC50 turned out to be 6.6 nM.
As for `CC(=O)O[C@@H](CNCc1cccc(Cl)c1)[C@@]12CC[C@]3(C)[C@H](CC[C@@H]4[C@@]5(C)CC[C@H](OC(=O)CC(C)(C)C(=O)O)C(C)(C)[C@@H]5CC[C@]43C)C1=C(C(C)C)C(=O)C2` [Example 40, 4-(((3aR,5aR,5bR,7aR,9S,11aR,11bR,13aS)-3a-((R)-1-Acetoxy-2-((3-chlorobenzyl)amino)ethyl)-1-isopropyl-5a,5b,8,8,11a-pentamethyl-2-oxo-3,3a,4,5,5a,5b,6,7,7a,8,9,10,11,11a,11b,12,13,13a-octadecahydro-2H-cyclopenta[a]chrysen-9-yl)oxy)-2,2-dimethyl-4-oxobutanoic acid], the EC50 amounted to 11.1 nM.
The same measure, in the same setting: the same measure for `CCN(Cc1ccccc1Cl)C[C@H](O)[C@@]12CC[C@]3(C)[C@H](CC[C@@H]4[C@@]5(C)CC[C@H](OC(=O)CC(C)(C)C(=O)O)C(C)(C)[C@@H]5CC[C@]43C)C1=C(C(C)C)C(=O)C2` [Example 49, 4-(((3aR,5aR,5bR,7aR,9S,11aR,11bR,13aS)-3a-((R)-2-((2-chlorobenzyl)(ethyl)amino)-1-hydroxyethyl)-1-isopropyl-5a,5b,8,8,11a-pentamethyl-2-oxo-3,3a,4,5,5a,5b,6,7,7a,8,9,10,11,11a,11b,12,13,13a-octadecahydro-2H-cyclopenta[a]chrysen-9-yl)oxy)-2,2-dimethyl-4-oxobutanoic acid]: 21.8 nM.
Consider `CC(C)C1=C2[C@H]3CC[C@@H]4[C@@]5(C)CC[C@H](OC(=O)CC(C)(C)C(=O)O)C(C)(C)[C@@H]5CC[C@@]4(C)[C@]3(C)CC[C@@]2([C@H]2CN(C3(c4ncc(Cl)cn4)CC3)C(=O)O2)CC1=O` [Example 60, 4-(((3aR,5aR,5bR,7aR,9S,11aR,11bR,13aS)-3a-((S)-3-(1-(5-chloropyrimidin-2-yl)cyclopropyl)-2-oxooxazolidin-5-yl)-1-isopropyl-5a,5b,8,8,11a-pentamethyl-2-oxo-3,3a,4,5,5a,5b,6,7,7a,8,9,10,11,11a,11b,12,13,13a-octadecahydro-2H-cyclopenta[a]chrysen-9-yl)oxy)-2,2-dimethyl-4-oxobutanoic acid], for which the EC50 worked out at 60.2 nM.
On to `CC(C)C1=C2[C@H]3CC[C@@H]4[C@@]5(C)CC[C@H](OC(=O)CC(C)(C)C(=O)O)C(C)(C)[C@@H]5CC[C@@]4(C)[C@]3(C)CC[C@@]2([C@@H]2CN(C3(c4ncc(Cl)cn4)CC3)C(=O)O2)CC1=O` [Example 61, 4-(((3aR,5aR,5bR,7aR,9S,11aR,11bR,13aS)-3a-((R)-3-(1-(5-chloropyrimidin-2-yl)cyclopropyl)-2-oxooxazolidin-5-yl)-1-isopropyl-5a,5b,8,8,11a-pentamethyl-2-oxo-3,3a,4,5,5a,5b,6,7,7a,8,9,10,11,11a,11b,12,13,13a-octadecahydro-2H-cyclopenta[a]chrysen-9-yl)oxy)-2,2-dimethyl-4-oxobutanoic acid], for which the EC50 was 130 nM.

Still in this experiment, the particulars now being: Human immunodeficiency virus 1, NL43; MT4 cells; read-out: EC50 NL4-3 wt.
As for `CC(=O)N(Cc1ccc(Cl)cc1)C[C@H](O)[C@@]12CC[C@]3(C)[C@H](CC[C@@H]4[C@@]5(C)CC[C@H](OC(=O)CC(C)(C)C(=O)O)C(C)(C)[C@@H]5CC[C@]43C)C1=C(C(C)C)C(=O)C2` [Example 34, 4-(((3aR,5aR,5bR,7aR,9S,11aR,11bR,13aS)-3a-((R)-2-(N-(4-Chlorobenzyl)acetamido)-1-hydroxyethyl)-1-isopropyl-5a,5b,8,8,11a-pentamethyl-2-oxo-3,3a,4,5,5a,5b,6,7,7a,8,9,10,11,11a,11b,12,13,13a-octadecahydro-2H-cyclopenta[a]chrysen-9-yl)oxy)-2,2-dimethyl-4-oxobutanoic acid], the EC50 turned out to be 7.1 nM.
For the molecule `CC(=O)N(Cc1ccccc1Cl)C[C@@H](O)[C@@]12CC[C@]3(C)[C@H](CC[C@@H]4[C@@]5(C)CC[C@H](OC(=O)CC(C)(C)C(=O)O)C(C)(C)[C@@H]5CC[C@]43C)C1=C(C(C)C)C(=O)C2` [Example 35, 4-(((3aR,5aR,5bR,7aR,9S,11aR,11bR,13aS)-3a-((S)-2-(N-(2-Chlorobenzyl)acetamido)-1-hydroxyethyl)-1-isopropyl-5a,5b,8,8,11a-pentamethyl-2-oxo-3,3a,4,5,5a,5b,6,7,7a,8,9,10,11,11a,11b,12,13,13a-octadecahydro-2H-cyclopenta[a]chrysen-9-yl)oxy)-2,2-dimethyl-4-oxobutanoic acid], the EC50 came to 4.2 nM.
The same measure, in the same setting: the same measure for `CC(=O)O[C@H](CN(CCN(C)C)Cc1ccccc1Cl)[C@@]12CC[C@]3(C)[C@H](CC[C@@H]4[C@@]5(C)CC[C@H](OC(=O)CC(C)(C)C(=O)O)C(C)(C)[C@@H]5CC[C@]43C)C1=C(C(C)C)C(=O)C2` [Example 36, 4-(((3aR,5aR,5bR,7aR,9S,11aR,11bR,13aS)-3a-((S)-1-Acetoxy-2-((2-chlorobenzyl)(2-(dimethylamino)ethyl)amino)ethyl)-1-isopropyl-5a,5b,8,8,11a-pentamethyl-2-oxo-3,3a,4,5,5a,5b,6,7,7a,8,9,10,11,11a,11b,12,13,13a-octadecahydro-2H-cyclopenta[a]chrysen-9-yl)oxy)-2,2-dimethyl-4-oxobutanoic acid]: 4 nM; for `CC(C)C1=C2[C@H]3CC[C@@H]4[C@@]5(C)CC[C@H](OC(=O)CC(C)(C)C(=O)O)C(C)(C)[C@@H]5CC[C@@]4(C)[C@]3(C)CC[C@@]2([C@H](O)CN(CCN(C)C)Cc2cccc(Cl)c2)CC1=O` [Example 44, 4-(((3aR,5aR,5bR,7aR,9S,11aR,11bR,13aS)-3a-((S)-2-((3-Chlorobenzyl)(2-(dimethylamino)ethyl)amino)-1-hydroxyethyl)-1-isopropyl-5a,5b,8,8,11a-pentamethyl-2-oxo-3,3a,4,5,5a,5b,6,7,7a,8,9,10,11,11a,11b,12,13,13a-octadecahydro-2H-cyclopenta[a]chrysen-9-yl)oxy)-2,2-dimethyl-4-oxobutanoic acid]: 1.8 nM; for `CC(C)C1=C2[C@H]3CC[C@@H]4[C@@]5(C)CC[C@H](OC(=O)CC(C)(C)C(=O)O)C(C)(C)[C@@H]5CC[C@@]4(C)[C@]3(C)CC[C@@]2([C@@H](O)CN(CCN(C)C)Cc2cccc(Cl)c2)CC1=O` [Example 45, 4-(((3aR,5aR,5bR,7aR,9S,11aR,11bR,13aS)-3a-((R)-2-((3-Chlorobenzyl)(2-(dimethylamino)ethyl)amino)-1-hydroxyethyl)-1-isopropyl-5a,5b,8,8,11a-pentamethyl-2-oxo-3,3a,4,5,5a,5b,6,7,7a,8,9,10,11,11a,11b,12,13,13a-octadecahydro-2H-cyclopenta[a]chrysen-9-yl)oxy)-2,2-dimethyl-4-oxobutanoic acid]: 1.9 nM.
For `CC(=O)N(Cc1cccc(Cl)c1)C[C@@H](O)[C@@]12CC[C@]3(C)[C@H](CC[C@@H]4[C@@]5(C)CC[C@H](OC(=O)CC(C)(C)C(=O)O)C(C)(C)[C@@H]5CC[C@]43C)C1=C(C(C)C)C(=O)C2` [Example 47, 4-(((3aR,5aR,5bR,7aR,9S,11aR,11bR,13aS)-3a-((S)-2-(N-(3-chlorobenzyl)acetamido)-1-hydroxyethyl)-1-isopropyl-5a,5b,8,8,11a-pentamethyl-2-oxo-3,3a,4,5,5a,5b,6,7,7a,8,9,10,11,11a,11b,12,13,13a-octadecahydro-2H-cyclopenta[a]chrysen-9-yl)oxy)-2,2-dimethyl-4-oxobutanoic acid], the EC50 amounted to 7.7 nM.
Consider `CC(C)C1=C2[C@H]3CC[C@@H]4[C@@]5(C)CC[C@H](OC(=O)CC(C)(C)C(=O)O)C(C)(C)[C@@H]5CC[C@@]4(C)[C@]3(C)CC[C@@]2([C@@H](O)CN(CCN(C)C)Cc2ccccc2Cl)CC1=O` [Example 50, 4-(((3aR,5aR,5bR,7aR,9S,11aR,11bR,13aS)-3a-((R)-2-((2-chlorobenzyl)(2-(dimethylamino)ethyl)amino)-1-hydroxyethyl)-1-isopropyl-5a,5b,8,8,11a-pentamethyl-2-oxo-3,3a,4,5,5a,5b,6,7,7a,8,9,10,11,11a,11b,12,13,13a-octadecahydro-2H-cyclopenta[a]chrysen-9-yl)oxy)-2,2-dimethyl-4-oxobutanoic acid], for which the EC50 amounted to 1.1 nM.
Take `CC(=O)O[C@@H](CNCc1ccccc1)[C@@]12CC[C@]3(C)[C@H](CC[C@@H]4[C@@]5(C)CC[C@H](OC(=O)CC(C)(C)C(=O)O)C(C)(C)[C@@H]5CC[C@]43C)C1=C(C(C)C)C(=O)C2` [Example 52, 4-(((3aR,5aR,5bR,7aR,9S,11aR,11bR,13aS)-3a-((R)-1-Acetoxy-2-(benzylamino)ethyl)-1-isopropyl-5a,5b,8,8,11a-pentamethyl-2-oxo-3,3a,4,5,5a,5b,6,7,7a,8,9,10,11,11a,11b,12,13,13a-octadecahydro-2H-cyclopenta[a]chrysen-9-yl)oxy)-2,2-dimethyl-4-oxobutanoic acid]: the EC50 worked out at 4.6 nM.
With `CC(C)C1=C2[C@H]3CC[C@@H]4[C@@]5(C)CC[C@H](OC(=O)CC(C)(C)C(=O)O)C(C)(C)[C@@H]5CC[C@@]4(C)[C@]3(C)CC[C@@]2([C@@H](O)CN2CCc3ccccc3C2)CC1=O` [Example 63, 4-(((3aR,5aR,5bR,7aR,9S,11aR,11bR,13aS)-3a-((R)-2-(3,4-dihydroisoquinolin-2(1H)-yl)-1-hydroxyethyl)-1-isopropyl-5a,5b,8,8,11a-pentamethyl-2-oxo-3,3a,4,5,5a,5b,6,7,7a,8,9,10,11,11a,11b,12,13,13a-octadecahydro-2H-cyclopenta[a]chrysen-9-yl)oxy)-2,2-dimethyl-4-oxobutanoic acid], the EC50 stood at 3.2 nM.
